test system: batrachotoxin (BTX) binding site of the sodium channel; experiment: Affinity to the batrachotoxin (BTX) binding site of the sodium channel; parameters: species or system rat; conditions: [3H]-batrachotoxinin A20 α-benzoate 10 nM; synaptosomes from rat cerebral cortex; test concentration not given

| Compound | BTX inhibition (rat) (% inhibition) [%] |
| --- | --- |
| CN(C(=O)c1cccc2ccccc12)c1nc2n(c1C(=O)N1CCN(c3ccccc3Cl)CC1)CCCC2 [Example 148, naphthalene-1-carboxylic acid {3-[4-(2-chloro-phenyl)-piperazine-1-carbonyl]-5,6,7,8-tetrahydro-imidazo[1,2-a]pyridin-2-yl}-methyl-amide] | 35 |
| CCCCN(C(=O)c1cccc(Cl)c1)c1nc2n(c1C(=O)N1CCN(c3cccc(C(F)(F)F)c3)CC1)CCCC2 [Example 79, N-butyl-3-chloro-N-{3-[4-(3-trifluoromethyl-phenyl)-piperazine-1-carbonyl]-5,6,7,8-tetrahydro-imidazo[1,2-a]pyridin-2-yl}-benzamide] | 83 |
| CCCCN(C(=O)c1ccc(F)c(F)c1)c1nc2n(c1C(=O)NCCCc1ccccc1)CCCC2 [Example 28, 2-[butyl-(3,4-difluoro-benzoyl)-amino]-5,6,7,8-tetrahydro-imidazo[1,2-a]pyridine-3-carboxylic acid (3-phenyl-propyl)-amide] | 42 |
| CCCCN(C(=O)c1cccc(Cl)c1)c1nc2n(c1C(=O)NCCc1ccc(Oc3ccccc3)cc1)CCCC2 [Example 134, 2-[butyl-(3-chloro-benzoyl)-amino]-5,6,7,8-tetrahydro-imidazo[1,2-a]pyridine-3-carboxylic acid [2-(4-phenoxy-phenyl)-ethyl]-amide] | 93 |
| CCCCN(C(=O)c1cccc(Cl)c1)c1nc2n(c1C(=O)N1CCN(c3ccccc3F)CC1)CCCC2 [Example 48, N-butyl-3-chloro-N-{3-[4-(2-fluoro-phenyl)-piperazine-1-carbonyl]-5,6,7,8-tetrahydro-imidazo[1,2-a]pyridin-2-yl}-benzamide] | 89 |
| CN(C(=O)c1ccccc1)c1nc2n(c1C(=O)NC1CCN(Cc3c(Cl)cccc3Cl)C1)CCCC2 (stereo not drawn) [Example 101, 2-(benzoyl-methyl-amino)-5,6,7,8-tetrahydro-imidazo[1,2-a]pyridine-3-carboxylic acid [1-(2,6-dichloro-benzyl)-pyrrolidin-3-yl]-amide] | 54 |
| CCCCN(C(=O)c1cccc(Cl)c1)c1nc2n(c1C(=O)NCCCn1ccnc1)CCCC2 [Example 9, 2-[butyl-(3-chloro-benzoyl)-amino]-5,6,7,8-tetrahydro-imidazo[1,2-a]pyridine-3-carboxylic acid (3-imidazol-1-yl-propyl)-amide] | 36 |
| CCCCN(C(=O)c1ccc(F)c(F)c1)c1nc2n(c1C(=O)N(C)C1CCN(Cc3cc4ccccc4o3)C1)CCCC2 (stereo not drawn) [Example 34, 2-[butyl-(3,4-difluoro-benzoyl)-amino]-5,6,7,8-tetrahydro-imidazo[1,2-a]pyridine-3-carboxylic acid (1-benzofuran-2-ylmethyl-pyrrolidin-3-yl)-methyl-amide] | 83 |
| CCCCN(C(=O)c1cccc(Cl)c1)c1nc2n(c1C(=O)NC1CCN(Cc3cc(OC)c(OC)cc3Br)C1)CCCC2 (stereo not drawn) [Example 172, 2-[butyl-(3-chloro-benzoyl)-amino]-5,6,7,8-tetrahydro-imidazo[1,2-a]pyridine-3-carboxylic acid [1-(2-bromo-4,5-dimethoxy-benzyl)-pyrrolidin-3-yl]-amide] | 96 |
| CN(C(=O)c1cccc(Cl)c1)c1nc2n(c1C(=O)NC1CCN(Cc3ccccc3OCc3ccccc3)C1)CCCC2 (stereo not drawn) [Example 59, 2-[(3-chloro-benzoyl)-methyl-amino]-5,6,7,8-tetrahydro-imidazo[1,2-a]pyridine-3-carboxylic acid [1-(2-benzyloxy-benzyl)-pyrrolidin-3-yl]-amide] | 95 |
| CCCCN(C(=O)c1cccc(Cl)c1)c1nc2n(c1C(=O)NC1CCc3ccccc31)CCCC2 (stereo not drawn) [Example 52, 2-[butyl-(3-chloro-benzoyl)-amino]-5,6,7,8-tetrahydro-imidazo[1,2-a]pyridine-3-carboxylic acid indan-1-ylamide] | 45 |
| CN(C(=O)c1cccc(Cl)c1)c1nc2n(c1C(=O)NCCc1cccc(C(F)(F)F)c1)CCCC2 [Example 71, 2-[(3-chloro-benzoyl)-methyl-amino]-5,6,7,8-tetrahydro-imidazo[1,2-a]pyridine-3-carboxylic acid [2-(3-trifluoromethyl-phenyl)-ethyl]-amide] | 36 |
| CN(C(=O)c1cccc(Cl)c1)c1nc2n(c1C(=O)NC1CCCCC1OCc1ccccc1)CCCC2 (stereo not drawn) [Example 67, 2-[(3-chloro-benzoyl)-methyl-amino]-5,6,7,8-tetrahydro-imidazo[1,2-a]pyridine-3-carboxylic acid (2-benzyloxy-cyclohexyl)-amide] | 51 |
| CCCCN(C(=O)c1cccc(Cl)c1)c1nc2n(c1C(=O)NCc1cccc(C)c1)CCCC2 [Example 113, 2-[butyl-(3-chloro-benzoyl)-amino]-5,6,7,8-tetrahydro-imidazo[1,2-a]pyridine-3-carboxylic acid 3-methyl-benzylamide] | 31 |
| CCCCN(C(=O)c1cccc(Cl)c1)c1nc2n(c1C(=O)NCCc1cc(OC)ccc1OC)CCCC2 [Example 2, 2-[butyl-(3-chloro-benzoyl)-amino]-5,6,7,8-tetrahydro-imidazo[1,2-a]pyridine-3-carboxylic acid [2-(2,5-dimethoxy-phenyl)-ethyl]-amide] | 59 |
| CN(C(=O)c1cccc2ccccc12)c1nc2n(c1C(=O)NCCc1ccc(Oc3ccccc3)cc1)CCCC2 [Example 68, 2-[methyl-(naphthalene-1-carbonyl)-amino]-5,6,7,8-tetrahydro-imidazo[1,2-a]pyridine-3-carboxylic acid [2-(4-phenoxy-phenyl)-ethyl]-amide] | 87 |
| CN(C(=O)c1cccc2ccccc12)c1nc2n(c1C(=O)NC1CCCCC1)CCCC2 [Example 154, 2-[methyl-(naphthalene-1-carbonyl)-amino]-5,6,7,8-tetrahydro-imidazo[1,2-a]pyridine-3-carboxylic acid cyclohexylamide] | 92 |
| CN(C(=O)Cc1ccccc1)c1nc2n(c1C(=O)NCCc1cccc(C(F)(F)F)c1)CCCC2 [Example 156, 2-(methyl-phenylacetyl-amino)-5,6,7,8-tetrahydro-imidazo[1,2-a]pyridine-3-carboxylic acid [2-(3-trifluoromethyl-phenyl)-ethyl]-amide] | 40 |
| CCCCN(C(=O)c1cccc(Cl)c1)c1nc2n(c1C(=O)NCc1ccccc1OCC)CCCC2 [Example 43, 2-[butyl-(3-chloro-benzoyl)-amino]-5,6,7,8-tetrahydro-imidazo[1,2-a]pyridine-3-carboxylic acid 2-ethoxy-benzylamide] | 40 |
| CN(C(=O)c1cccc(Cl)c1)c1nc2n(c1C(=O)N1CCN(Cc3ccc4c(c3)OCO4)CC1)CCCC2 [Example 45, N-[3-(4-benzo[1,3]dioxol-5-ylmethyl-piperazine-1-carbonyl)-5,6,7,8-tetrahydro-imidazo[1,2-a]pyridin-2-yl]-3-chloro-N-methyl-benzamide] | 41 |
| CCCCN(C(=O)c1cccc(Cl)c1)c1nc2n(c1C(=O)N[C@H](C(=O)OCc1ccccc1)C(C)C)CCCC2 [Example 91] | 48 |
| CCc1ccccc1N1CCN(C(=O)c2c(N(C)C(=O)c3ccccc3)nc3n2CCCC3)CC1 [Example 3, N-{3-[4-(2-ethyl-phenyl)-piperazine-1-carbonyl]-5,6,7,8-tetrahydro-imidazo[1,2-a]pyridin-2-yl}-N-methyl-benzamide] | 34 |
| CN(C(=O)c1cccc2ccccc12)c1nc2n(c1C(=O)NC(c1ccccc1)c1ccc(Cl)cc1)CCCC2 (stereo not drawn) [Example 139, 2-[methyl-(naphthalene-1-carbonyl)-amino]-5,6,7,8-tetrahydro-imidazo[1,2-a]pyridine-3-carboxylic acid [(4-chlor-phenyl)-phenyl-methyl]-amide] | 73 |
| CCCCN(C(=O)c1cccc(Cl)c1)c1nc2n(c1C(=O)NCc1ccc(F)cc1F)CCCC2 [Example 47, 2-[butyl-(3-chloro-benzoyl)-amino]-5,6,7,8-tetrahydro-imidazo[1,2-a]pyridine-3-carboxylic acid 2,4-difluoro-benzylamide] | 44 |
| CN(C(=O)c1cccc(Cl)c1)c1nc2n(c1C(=O)N1CCN(CCc3ccccc3)CC1)CCCC2 [Example 106, 3-chloro-N-methyl-N-[3-(4-phenethyl-piperazine-1-carbonyl)-5,6,7,8-tetrahydro-imidazo[1,2-a]pyridin-2-yl]-benzamide] | 40 |
| CC1C(NC(=O)c2c(N(C)C(=O)c3cccc(Cl)c3)nc3n2CCCC3)CC2CC1C2(C)C (stereo not drawn) [Example 27, 2-[(3-chloro-benzoyl)-methyl-amino]-5,6,7,8-tetrahydro-imidazo[1,2-a]pyridine-3-carboxylic acid (2,6,6-trimethyl-bicyclo[3.1.1]hept-3-yl)-amide] | 35 |
| CN(C(=O)c1cccc(Cl)c1)c1nc2n(c1C(=O)N1CC=C(c3ccc(F)cc3)CC1)CCCC2 [Example 61, 3-chloro-N-{3-[4-(4-fluorophenyl)-3,6-dihydro-2H-pyridine-1-carbonyl]-5,6,7,8-tetrahydro-imidazo[1,2-a]pyridin-2-yl}-N-methyl-benzamide] | 38 |
| CCOc1ccc(Br)cc1CN1CCN(C(=O)c2c(N(C)C(=O)Cc3ccccc3)nc3n2CCCC3)CC1 [Example 130, N-{3-[4-(5-bromo-2-ethoxy-benzyl)-piperazine-1-carbonyl]-5,6,7,8-tetrahydro-imidazo[1,2-a]pyridin-2-yl}-N-methyl-2-phenyl-acetamide] | 67 |
| CCCCN(C(=O)c1cccc(Cl)c1)c1nc2n(c1C(=O)Nc1ccc(NC(=O)OC(C)(C)C)cc1)CCCC2 [Example 189, [4-({2-[butyl-(3-chloro-benzoyl)-amino]-5,6,7,8-tetrahydro-imidazo[1,2-a]pyridine-3-carbonyl}-amino)-phenyl]-carbamic acid tert-butyl ester] | 93 |

same assay, conditions: radioligand at BTX binding site; rat cerebral cortex synaptosomes

| Compound | Kd [nM] |
| --- | --- |
| [^3H]-batrachotoxinin A20 α-benzoate [reference compound] | 24.6 ± 1.56 |

Reference: US7829568B2, “Substituted 5,6,7,8-tetrahydroimidazo[1,2-a]pyridin-2-ylamine compounds and their use for producing drugs” (Gruenenthal GmbH, priority 2005, dated 2010)
